# Experimental data taken from US20250152719A1, “FUSED IMIDE DERIVATIVE” (Chia Tai Tianqing Pharmaceutical Group Co., Ltd., priority 2021, published 2025).
# Where two headings read alike, the source gives them in different places.
# Assays:
# [1] = biological target: BTK (Homo sapiens (Human), UniProt Q06187); experiment: BTK degradation in OCI-LY10 cells (Total-BTK HTRF kit); type: cell-based; conditions: 24 (or 6) h incubation; for DC50 / BTK degradation in OCI-LY10 cells Dmax: OCI-LY10 cells; for DC50: DC50 = concentration when degradation rate reaches 50%, read-out: OCI-LY10 cell BTK degradation DC50; for BTK degradation in OCI-LY10 cells Dmax / Dmax: maximum degradation rate; for Dmax: OCI-Ly10, OCI-LY10 cells
# Chain of BTK (Q06187 whole entry): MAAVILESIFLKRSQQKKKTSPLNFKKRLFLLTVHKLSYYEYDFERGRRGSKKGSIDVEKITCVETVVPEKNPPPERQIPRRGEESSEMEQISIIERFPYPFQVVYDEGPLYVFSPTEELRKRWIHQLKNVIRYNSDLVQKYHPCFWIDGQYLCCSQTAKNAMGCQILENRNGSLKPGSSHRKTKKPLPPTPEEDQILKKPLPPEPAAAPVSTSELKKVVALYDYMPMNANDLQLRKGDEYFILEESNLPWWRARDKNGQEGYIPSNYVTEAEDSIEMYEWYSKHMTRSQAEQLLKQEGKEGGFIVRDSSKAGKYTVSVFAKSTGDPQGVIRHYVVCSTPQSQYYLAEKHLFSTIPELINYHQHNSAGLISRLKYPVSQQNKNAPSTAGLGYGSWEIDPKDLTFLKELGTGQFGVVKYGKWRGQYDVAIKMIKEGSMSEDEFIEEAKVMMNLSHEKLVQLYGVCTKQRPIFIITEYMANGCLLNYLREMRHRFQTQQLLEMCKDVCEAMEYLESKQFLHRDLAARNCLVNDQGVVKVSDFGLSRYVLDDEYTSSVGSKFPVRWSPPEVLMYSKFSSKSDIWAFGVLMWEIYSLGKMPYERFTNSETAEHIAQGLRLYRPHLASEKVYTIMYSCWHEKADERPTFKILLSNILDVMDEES
# Experimental: The detection was carried out using the Total-BTK Kits (cisbio, 63ADK064PEH), and 4× Supplemented Lysis buffer was prepared using the Blocking reagent stock solution (100×) and Lysis buffer stock solution (4×). Premixed antibody solutions were prepared using the Detection buffer, Total-BTK d2 antibody, and Total-BTK Eu Cryptate antibody.
# OCI-LY10 cells in a good growth state were collected and added to a centrifuge tube, adjusted to a cell density of 4.17×10^6 cells/mL, and seeded in a 384-well plate (12 μL/well). The cells were incubated overnight in a cell incubator. Compounds were added using a nanoliter pipettor such that the final concentrations of the compounds were 100 nM-0.098 nM; the addition was performed in duplicate, and meanwhile, a control was set. After another 24 (or 6) h of incubation in the cell incubator, the 4× Supplemented Lysis buffer was added at 4 μL/well to lyse the cells. After the cells were shaken for 40 min at room temperature, the Premixed antibody solutions were added at 4 μL/well, and the cells were left to stand overnight at room temperature. Fluorescence values of the cells were detected at 665 nm/620 nm using an Envision microplate reader, the four-parameter analysis was performed, the dose-response curves were fit, and DC50 (the concentration of the drug when the degradation rate reaches 50%) and Dmax (the maximum degradation rate) were calculated.
# [2] = test system: OCI-LY10 cells; experiment: Inhibitory activity on OCI-LY10 cell proliferation (CCK-8); type: cell-based
# Experimental: (§1) OCI-LY10 cells in a good growth state were collected and added to a centrifuge tube, adjusted to a cell density of 1×10^5 cells/mL, and seeded in a 96-well plate (100 μL/well). The cells were incubated overnight in a cell incubator. Compounds were added using a nanoliter pipettor such that the final concentrations of the compounds were 5000 nM-0.31 nM; the addition was performed in duplicate, and meanwhile, a control was set. After another 72 h of incubation in the cell incubator, 10 μL of CCK-8 (CK04, PP799) was added. After 2.5 h of incubation in the cell incubator, absorbance values were detected at 450 nm using an Envision microplate reader, the four-parameter analysis was performed, the dose-response curves were fit, and IC50 was calculated.
# [3] = test system: OCI-LY10-BTK(C481S) cells; experiment: Inhibitory activity on OCI-LY10-BTK(C481S) cell proliferation (CCK-8); type: cell-based; conditions: 72 h incubation, IC50 per method, unit inferred
# Experimental: OCI-LY10(C481S) cells in the logarithmic growth phase were collected and added to a centrifuge tube, adjusted to a cell density of 5×10^4 cells/mL, and seeded in a 96-well plate (100 μL/well). Meanwhile, compounds were added using a nanoliter pipettor such that the final concentrations of the compounds were 5000 nM-0.31 nM; the addition was performed in duplicate, and meanwhile, a control was set. After another 72 h of incubation in the cell incubator, the detection reagent CCK-8 (manufacturer: Dojindo Laboratories, Beijing; 10 μL/well) was added. After 3 h of incubation in the cell incubator, absorbance values were detected at 450 nm using a PerkinElmer Envision microplate reader, the four-parameter analysis was performed, the dose-response curves were fit, and IC50 was calculated.
# [4] = In vitro liver microsomal stability, mouse; conditions: 0.5 mg/mL microsomes, NADPH, 37° C., 1 h
# Experimental: (§2) Liver microsome incubation samples were prepared by mixing a PBS buffer (pH 7.4), a liver microsome solution (0.5 mg/mL), a test compound, and an NADPH+MgCl2 solution and incubated at 37° C. and 300 rpm for 1 h. Zero-hour samples were prepared by mixing a PBS buffer (pH 7.4), a liver microsome solution (0.5 mg/mL), and a test compound. An acetonitrile solution containing an internal standard was added to the samples, and supernatants were prepared by protein precipitation, diluted, and then assayed by LC/MS/MS.
# [5] = In vitro liver microsomal stability, human; type: in vitro ADME; conditions: 0.5 mg/mL microsomes, NADPH, 37° C., 1 h
# Experimental: as §2
# [6] = test system: TMD8-BTK(C481S) cells; experiment: Inhibitory activity on TMD8-BTK(C481S) cell proliferation (CCK-8); type: cell-based; conditions: 72 h incubation
# Experimental: as §1, with “TMD8-BTK(C481S)” for “OCI-LY10”, “8×10^4” for “1×10^5”, “4” for “2.5”
# [7] = test system: TMD-8 xenograft tumors; experiment: In vivo drug efficacy, TMD-8 mouse subcutaneous xenograft tumors; design: species or system NOD-SCID mice; conditions: 30 mg/kg, qd, i.g.; for TGI d 17: 16 days, tumor weight on day 17; for TV on d 0 Mean ± SD: day 0 (baseline at grouping); for TV on d 12 Mean ± SD: day 12; for TV on d 15 Mean ± SD: day 15
# Experimental: TMD-8 mouse subcutaneous xenograft tumors: TMD-8 (WT) cells at a concentration of 1×10^8/mL were inoculated under aseptic conditions into the right side armpit of NOD-SCID mice at 0.1 mL/mouse. After subcutaneous grafting, the animals were divided into groups with 6 animals in each group when the tumor volume reached about 188 mm^3 (or 200 mm^3):
# model group: vehicle, 6 mice; compound administration groups: 30 mg/kg, qd, i.g., 6 mice.
# The vehicle or the test compound was intragastrically given at a volume of 4 mL/kg, once daily for 16 consecutive days. The tumor volume was measured 2-3 times a week, and meanwhile, the mice were weighed and the data were recorded; the general behaviors of the animals were observed every day. After all dosing was complete, the animals were sacrificed on day 17, and the tumors were removed and weighed.
# The tumor volume and the tumor growth inhibition were calculated using the following formulae:
# Tumor volume (TV)=(Length×Width^2)/2.
# Tumor growth inhibition (TGI)=(1−tumor weight of treatment group/tumor weight of model group)×100%.
# [8] = Mouse pharmacokinetics; type: in vivo, ICR mice
# Experimental: ICR mice weighing 18-22 g were randomized into groups of 9 after 3-5 days of acclimatization and then intragastrically given the test compound solution at a dose of 10 mg/kg. Plasma samples to be tested were prepared by taking blood from the orbit at time points of 15 min, 30 min, 1 h, 2 h, 3 h, 4 h, 6 h, 8 h, 10 h, and 24 h. 20 μL of each plasma sample to be detected and a standard curve sample were taken, and an acetonitrile solution containing an internal standard was added. […] Pharmacokinetic parameters were fitted using a non-compartmental model (see Table 5).
# [9] = Homo sapiens, OCI-Ly10, 72 h incubation
# [10] = ICR, mouse, plasma, iv, 1 mg/kg, Mouse i.v. 1 mpk
# [11] = ICR, mouse, plasma, iv, 1 mg/kg, Mouse i.v. 1 mpk, read-out: AUC
# [12] = ICR, mouse, plasma, po, 10 mg/kg, Mouse i.g. 10 mpk
# [13] = ICR, mouse, plasma, po, 10 mg/kg, Mouse i.g. 10 mpk, read-out: AUC
# [14] = ICR, mouse, plasma, po, 10 mg/kg, Mouse i.g. 10 mpk, read-out: Cmax
compound,measurement,setting,value
CN1CCN([C@@H]2CCCN(c3cnc(C(N)=O)c(Nc4ccc(C5CCN(C[C@@H]6CCC(c7cc8onc(C9CCC(=O)NC9=O)c8c8cc[nH]c78)C6)CC5)cc4)n3)C2)C1=O (stereo partly shown) [Compound 13],DC50,[1],< 0.098 nM
same,BTK degradation in OCI-LY10 cells Dmax,[1],100%
same,IC50,[2]; 72 h incubation,< 0.31 nM
same,IC50,[3],< 0.31 nM
same,Mouse liver microsome Residuals at 60 min,[4],56.41%
CN1CCN([C@@H]2CCCN(c3cnc(C(N)=O)c(Nc4ccc(C5CCN(C[C@@H]6CCC(c7cc8[nH]ccc8c8c(C9CCC(=O)NC9=O)noc78)C6)CC5)cc4)n3)C2)C1=O (stereo partly shown) [Compound 14],DC50,[1],< 0.098 nM
same,BTK degradation in OCI-LY10 cells Dmax,[1],100%
same,IC50,[2]; 72 h incubation,< 0.31 nM
same,IC50,[3],< 0.31 nM
same,Mouse liver microsome Residuals at 60 min,[4],62.41%
CN1CCN([C@@H]2CCCN(c3cnc(C(N)=O)c(Nc4ccc(C5CCN(C6CN(c7cc8onc(C9CCC(=O)NC9=O)c8c8ccccc78)C6)CC5)cc4)n3)C2)C1=O (stereo partly shown) [Compound 93],Human liver microsome Residuals at 60 min,[5],53.0%
same,Dmax,[1],> 90%
same,IC50,[3]; 72 h,0.7 nM
same,Mouse liver microsome Residuals at 60 min,[4],72.0%
NC(=O)c1ncc(N2CCCCC2)nc1Nc1ccc(C2CCN(C[C@@H]3CC[C@@H](n4ccc5c6c(C7CCC(=O)NC7=O)noc6ccc54)C3)CC2)cc1 (stereo partly shown) [Compound 104],IC50,[6]; 72 h,16 nM
same,TGI d 17,[7],96.0%
same,TV on d 0 Mean ± SD,[7],226 ± 27 mm^3
same,TV on d 12 Mean ± SD,[7],286 ± 77 mm^3
same,TV on d 15 Mean ± SD,[7],269 ± 61 mm^3
CN1CCN([C@@H]2CCCN(c3cnc(C(N)=O)c(Nc4ccc(C5CCN(CC6CCN(c7ccc8c(C9CCC(=O)NC9=O)noc8c7)CC6)CC5)cc4)n3)C2)C1=O (stereo partly shown) [Compound 8],DC50,[1],< 0.098 nM
same,Dmax,[1],99%
same,IC50,[6]; 72 h,6.9 nM
same,IC50,[2]; [9],< 0.31 nM
same,Mouse liver microsome Residuals at 60 min,[4],54.7%
NC(=O)c1ncc(N2CCCCC2)nc1Nc1ccc(C2CCN(C3Cc4ccc5c(C6CCC(=O)NC6=O)noc5c4C3)CC2)cc1 (stereo not shown) [Compound 69],Human liver microsome Residuals at 60 min,[5],80.0%
same,clearance,[8]; [10],2 mL/min/kg
same,half-life,[8]; [10],2.6 h
same,AUC,[8]; [11],8030 ng·h/mL
same,half-life,[8]; [12],7 h
same,AUC,[8]; [13],41400 ng·h/mL
same,Cmax,[8]; [14],2730 ng/mL
same,F,[8]; Mouse i.g. 10 mpk,51.6%
same,IC50,[6],5.7 nM
same,TGI d 17,[7],96.4%
same,TV on d 0 Mean ± SD,[7],226 ± 21 mm^3
same,TV on d 12 Mean ± SD,[7],246 ± 56 mm^3
same,TV on d 15 Mean ± SD,[7],199 ± 72 mm^3
same,Mouse liver microsome Residuals at 60 min,[4],85.0%
CN1CCN([C@@H]2CCCN(c3cnc(C(N)=O)c(Nc4ccc(N5CCC(CN6Cc7cc8onc(C9CCC(=O)NC9=O)c8cc7C6)CC5)cc4)n3)C2)C1=O (stereo partly shown) [Compound 29],Dmax,[1],> 90%
same,IC50,[2]; [9],< 0.31 nM
same,IC50,[3]; 72 h,0.35 nM
NC(=O)c1ncc(N2CCCCC2)nc1Nc1ccc(C2CCN(CC3CN(c4ccc5c(C6CCC(=O)NC6=O)noc5c4)C3)CC2)cc1 (stereo not shown) [Compound 94],Human liver microsome Residuals at 60 min,[5],81.0%
same,Dmax,[1],> 90%
same,IC50,[2]; [9],< 0.31 nM
same,IC50,[3]; 72 h,0.53 nM
same,Mouse liver microsome Residuals at 60 min,[4],75.0%
CN1CCN([C@@H]2CCCN(c3cnc(C(N)=O)c(Nc4ccc(N5CCC(N6CCc7ccc8c(C9CCC(=O)NC9=O)noc8c7CC6)CC5)cc4)n3)C2)C1=O (stereo partly shown) [Compound 36],DC50,[1],< 0.098 nM
same,Dmax,[1],95%
same,IC50,[2]; [9],< 0.31 nM
same,IC50,[3]; 72 h,0.024 nM
NC(=O)c1ncc(N2CCCCC2)nc1Nc1ccc(C2CCN(C[C@@H]3CC[C@H](n4ccc5c6c(C7CCC(=O)NC7=O)noc6ccc54)C3)CC2)cc1 (stereo partly shown) [Compound 105],IC50,[6]; 72 h,6.9 nM
same,TGI d 17,[7],95.4%
same,TV on d 0 Mean ± SD,[7],226 ± 28 mm^3
same,TV on d 12 Mean ± SD,[7],253 ± 36 mm^3
same,TV on d 15 Mean ± SD,[7],229 ± 49 mm^3
CN1CCN([C@@H]2CCCN(c3cnc(C(N)=O)c(Nc4ccc(C5CCN(CC6Cc7ccc8c(C9CCC(=O)NC9=O)noc8c7C6)CC5)cc4)n3)C2)C1=O (stereo partly shown) [Compound 90],AUC,[8]; Mouse i.g. 10 mpk,18944 ng·h/mL
same,Cmax,[8]; Mouse i.g. 10 mpk,2550 ng/mL
same,F,[8]; Mouse i.g. 10 mpk,21.0%
same,t1/2,[8]; Mouse i.g. 10 mpk,3 h
same,AUC,[8]; Mouse i.v. 1 mpk,8882 ng·h/mL
same,Cl,[8]; Mouse i.v. 1 mpk,1.83 mL/min/kg
same,t1/2,[8]; Mouse i.v. 1 mpk,2.7 h
same,BTK degradation in OCI-LY10 cells Dmax,[1],>90%
same,IC50,[6],1.2 nM
same,IC50,[2]; 72 h incubation,< 0.31 nM
same,Mouse liver microsome Residuals at 60 min,[4],54.63%
CN1CCN([C@@H]2CCCN(c3cnc(C(N)=O)c(Nc4ccc(N5CCC(N6CCc7ccc8c(C9CCC(=O)NC9=O)noc8c7C6)CC5)cc4)n3)C2)C1=O (stereo partly shown) [Compound 34],DC50,[1],< 0.098 nM
same,Dmax,[1],97%
same,IC50,[2]; [9],< 0.31 nM
same,IC50,[3]; 72 h,0.19 nM
NC(=O)c1ncc(N2CCCCC2)nc1Nc1ccc(N2CCC(CN3CCc4ccc5c(C6CCC(=O)NC6=O)noc5c4CC3)CC2)cc1 (stereo not shown) [Compound 72],Human liver microsome Residuals at 60 min,[5],94.0%
same,clearance,[8]; [10],12 mL/min/kg
same,half-life,[8]; [10],2.3 h
same,AUC,[8]; [11],1290 ng·h/mL
same,half-life,[8]; [12],4.6 h
same,AUC,[8]; [13],8300 ng·h/mL
same,Cmax,[8]; [14],634 ng/mL
same,F,[8]; Mouse i.g. 10 mpk,64.50%
same,Dmax,[1],> 90%
same,IC50,[6]; 72 h,2.6 nM
same,TGI d 17,[7],97.9%
same,TV on d 0 Mean ± SD,[7],226 ± 21 mm^3
same,TV on d 12 Mean ± SD,[7],246 ± 52 mm^3
same,TV on d 15 Mean ± SD,[7],122 ± 78 mm^3
CN1CCN([C@@H]2CCCN(c3cnc(C(N)=O)c(Nc4ccc(C5CCN(C[C@@H]6CCC(c7ccc8c(C9CCC(=O)NC9=O)noc8c7)C6)CC5)cc4)n3)C2)C1=O (stereo partly shown) [Compound 7],DC50,[1],< 0.098 nM
same,Dmax,[1],99%
same,IC50,[2]; [9],< 0.31 nM
same,Mouse liver microsome Residuals at 60 min,[4],42.7%
